{"source": "PubChem BioAssay (NCI)", "assay_in_all_cases": "NCI-60 cell line screen, 48 h", "key": {"SR leukemia": {"tested_on": "SR leukemia"}, "NCI-H23 lung": {"tested_on": "NCI-H23 lung"}, "UACC-257 melanoma": {"tested_on": "UACC-257 melanoma"}, "SK-OV-3 ovarian": {"tested_on": "SK-OV-3 ovarian"}, "OVCAR-4 ovarian": {"tested_on": "OVCAR-4 ovarian"}, "PC-3 prostate": {"tested_on": "PC-3 prostate"}, "SW-620 colon": {"tested_on": "SW-620 colon"}, "MDA-MB-435": {"tested_on": "MDA-MB-435"}, "NCI-H460 lung": {"tested_on": "NCI-H460 lung"}, "OVCAR-8 ovarian": {"tested_on": "OVCAR-8 ovarian"}, "MDA-MB-231 breast": {"tested_on": "MDA-MB-231 breast"}, "HS 578T breast": {"tested_on": "HS 578T breast"}, "SF-268 CNS": {"tested_on": "SF-268 CNS"}, "SNB-19 CNS": {"tested_on": "SNB-19 CNS"}, "RPMI-8226 leukemia": {"tested_on": "RPMI-8226 leukemia"}, "DU-145 prostate": {"tested_on": "DU-145 prostate"}, "T-47D breast": {"tested_on": "T-47D breast"}, "OVCAR-3 ovarian": {"tested_on": "OVCAR-3 ovarian"}, "HOP-92 NSCLC": {"tested_on": "HOP-92 NSCLC"}, "CCRF-CEM leukemia": {"tested_on": "CCRF-CEM leukemia"}, "A549 NSCLC": {"tested_on": "A549 NSCLC"}, "HCT-15 colon": {"tested_on": "HCT-15 colon"}, "KM12 colon": {"tested_on": "KM12 colon"}, "IGROV1 ovarian": {"tested_on": "IGROV1 ovarian"}, "HOP-62 NSCLC": {"tested_on": "HOP-62 NSCLC"}, "U251 CNS": {"tested_on": "U251 CNS"}, "SNB-75 CNS": {"tested_on": "SNB-75 CNS"}, "NCI-H226 lung": {"tested_on": "NCI-H226 lung"}, "SK-MEL-28 melanoma": {"tested_on": "SK-MEL-28 melanoma"}, "TK-10 renal": {"tested_on": "TK-10 renal"}, "SN12C renal": {"tested_on": "SN12C renal"}, "CAKI-1 renal": {"tested_on": "CAKI-1 renal"}, "OVCAR-5 ovarian": {"tested_on": "OVCAR-5 ovarian"}, "SF-295 CNS": {"tested_on": "SF-295 CNS"}, "A498 renal": {"tested_on": "A498 renal"}, "NCI/ADR-RES ovarian": {"tested_on": "NCI/ADR-RES ovarian"}, "SK-MEL-2 melanoma": {"tested_on": "SK-MEL-2 melanoma"}, "MOLT-4 leukemia": {"tested_on": "MOLT-4 leukemia"}}, "note": "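Cultured in 96-well plates, cells were exposed to test compound for 48 hours across five concentrations. GI50 = concentration required for 50% inhibition of growth. Definition used: TGI = concentration required for complete inhibition of growth.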", "data": [{"smiles": "CC(C)=CCC/C(C)=C/CC/C(C)=C/CC/C(C)=C/CSC[C@H](NC(=O)CCCCCN1CCN(C)CC1)C(=O)NC1CCCCC1", "values": [{"measurement": "GI50", "setting": "SR leukemia", "result": 2.44, "unit": "µM"}, {"measurement": "TGI", "setting": "SR leukemia", "result": 6.27, "unit": "µM"}, {"measurement": "GI50", "setting": "NCI-H23 lung", "result": 4.73, "unit": "µM"}, {"measurement": "TGI", "setting": "NCI-H23 lung", "result": 23.4, "unit": "µM"}, {"measurement": "GI50", "setting": "UACC-257 melanoma", "result": 2.09, "unit": "µM"}, {"measurement": "TGI", "setting": "UACC-257 melanoma", "result": 4.93, "unit": "µM"}, {"measurement": "GI50", "setting": "SK-OV-3 ovarian", "result": 13, "unit": "µM"}, {"measurement": "TGI", "setting": "SK-OV-3 ovarian", "result": 32.5, "unit": "µM"}, {"measurement": "GI50", "setting": "OVCAR-4 ovarian", "result": 3.51, "unit": "µM"}, {"measurement": "TGI", "setting": "OVCAR-4 ovarian", "result": 15.5, "unit": "µM"}, {"measurement": "GI50", "setting": "PC-3 prostate", "result": 1.76, "unit": "µM"}, {"measurement": "TGI", "setting": "PC-3 prostate", "result": 3.49, "unit": "µM"}, {"measurement": "GI50", "setting": "SW-620 colon", "result": 1.91, "unit": "µM"}, {"measurement": "TGI", "setting": "SW-620 colon", "result": 3.81, "unit": "µM"}, {"measurement": "GI50", "setting": "MDA-MB-435", "result": 1.66, "unit": "µM"}, {"measurement": "TGI", "setting": "MDA-MB-435", "result": 3.07, "unit": "µM"}, {"measurement": "GI50", "setting": "NCI-H460 lung", "result": 1.94, "unit": "µM"}, {"measurement": "TGI", "setting": "NCI-H460 lung", "result": 3.73, "unit": "µM"}, {"measurement": "GI50", "setting": "OVCAR-8 ovarian", "result": 3.4, "unit": "µM"}, {"measurement": "TGI", "setting": "OVCAR-8 ovarian", "result": 14.3, "unit": "µM"}, {"measurement": "GI50", "setting": "MDA-MB-231 breast", "result": 2, "unit": "µM"}, {"measurement": "TGI", "setting": "MDA-MB-231 breast", "result": 3.84, "unit": "µM"}, {"measurement": "GI50", "setting": "HS 578T breast", "result": 3.54, "unit": "µM"}, {"measurement": "TGI", "setting": "HS 578T breast", "result": 17.4, "unit": "µM"}, {"measurement": "GI50", "setting": "SF-268 CNS", "result": 4.05, "unit": "µM"}, {"measurement": "TGI", "setting": "SF-268 CNS", "result": 17.5, "unit": "µM"}, {"measurement": "GI50", "setting": "SNB-19 CNS", "result": 2.27, "unit": "µM"}, {"measurement": "TGI", "setting": "SNB-19 CNS", "result": 5.71, "unit": "µM"}, {"measurement": "GI50", "setting": "RPMI-8226 leukemia", "result": 2.14, "unit": "µM"}, {"measurement": "TGI", "setting": "RPMI-8226 leukemia", "result": 5.13, "unit": "µM"}, {"measurement": "GI50", "setting": "DU-145 prostate", "result": 2.08, "unit": "µM"}, {"measurement": "TGI", "setting": "DU-145 prostate", "result": 4.07, "unit": "µM"}, {"measurement": "GI50", "setting": "T-47D breast", "result": 2.31, "unit": "µM"}, {"measurement": "TGI", "setting": "T-47D breast", "result": 7.02, "unit": "µM"}, {"measurement": "GI50", "setting": "OVCAR-3 ovarian", "result": 2.66, "unit": "µM"}, {"measurement": "TGI", "setting": "OVCAR-3 ovarian", "result": 6.49, "unit": "µM"}, {"measurement": "GI50", "setting": "HOP-92 NSCLC", "result": 2.13, "unit": "µM"}, {"measurement": "TGI", "setting": "HOP-92 NSCLC", "result": 11.3, "unit": "µM"}, {"measurement": "GI50", "setting": "CCRF-CEM leukemia", "result": 2.51, "unit": "µM"}, {"measurement": "TGI", "setting": "CCRF-CEM leukemia", "result": 7.67, "unit": "µM"}, {"measurement": "GI50", "setting": "A549 NSCLC", "result": 3.36, "unit": "µM"}, {"measurement": "TGI", "setting": "A549 NSCLC", "result": 14, "unit": "µM"}, {"measurement": "GI50", "setting": "HCT-15 colon", "result": 1.78, "unit": "µM"}, {"measurement": "TGI", "setting": "HCT-15 colon", "result": 3.47, "unit": "µM"}, {"measurement": "GI50", "setting": "KM12 colon", "result": 2.03, "unit": "µM"}, {"measurement": "TGI", "setting": "KM12 colon", "result": 4.01, "unit": "µM"}, {"measurement": "GI50", "setting": "IGROV1 ovarian", "result": 2.91, "unit": "µM"}, {"measurement": "TGI", "setting": "IGROV1 ovarian", "result": 7.76, "unit": "µM"}, {"measurement": "GI50", "setting": "HOP-62 NSCLC", "result": 8.63, "unit": "µM"}, {"measurement": "TGI", "setting": "HOP-62 NSCLC", "result": 32.2, "unit": "µM"}, {"measurement": "GI50", "setting": "U251 CNS", "result": 1.81, "unit": "µM"}, {"measurement": "TGI", "setting": "U251 CNS", "result": 3.52, "unit": "µM"}, {"measurement": "GI50", "setting": "SNB-75 CNS", "result": 4.16, "unit": "µM"}, {"measurement": "TGI", "setting": "SNB-75 CNS", "result": 21, "unit": "µM"}, {"measurement": "GI50", "setting": "NCI-H226 lung", "result": 24, "unit": "µM"}, {"measurement": "TGI", "setting": "NCI-H226 lung", "result": 98.2, "unit": "µM"}, {"measurement": "GI50", "setting": "SK-MEL-28 melanoma", "result": 1.79, "unit": "µM"}, {"measurement": "TGI", "setting": "SK-MEL-28 melanoma", "result": 3.43, "unit": "µM"}, {"measurement": "GI50", "setting": "TK-10 renal", "result": 11.7, "unit": "µM"}, {"measurement": "TGI", "setting": "TK-10 renal", "result": 30.5, "unit": "µM"}, {"measurement": "GI50", "setting": "SN12C renal", "result": 2.36, "unit": "µM"}, {"measurement": "TGI", "setting": "SN12C renal", "result": 6.19, "unit": "µM"}, {"measurement": "GI50", "setting": "CAKI-1 renal", "result": 3.08, "unit": "µM"}, {"measurement": "TGI", "setting": "CAKI-1 renal", "result": 11, "unit": "µM"}, {"measurement": "GI50", "setting": "OVCAR-5 ovarian", "result": 2.05, "unit": "µM"}, {"measurement": "TGI", "setting": "OVCAR-5 ovarian", "result": 5.25, "unit": "µM"}, {"measurement": "GI50", "setting": "SF-295 CNS", "result": 1.74, "unit": "µM"}, {"measurement": "TGI", "setting": "SF-295 CNS", "result": 3.51, "unit": "µM"}, {"measurement": "GI50", "setting": "A498 renal", "result": 14.4, "unit": "µM"}, {"measurement": "TGI", "setting": "A498 renal", "result": 34.2, "unit": "µM"}, {"measurement": "GI50", "setting": "NCI/ADR-RES ovarian", "result": 8.98, "unit": "µM"}, {"measurement": "TGI", "setting": "NCI/ADR-RES ovarian", "result": 33.8, "unit": "µM"}, {"measurement": "GI50", "setting": "SK-MEL-2 melanoma", "result": 4.11, "unit": "µM"}, {"measurement": "TGI", "setting": "SK-MEL-2 melanoma", "result": 14.5, "unit": "µM"}, {"measurement": "GI50", "setting": "MOLT-4 leukemia", "result": 3.17, "unit": "µM"}, {"measurement": "TGI", "setting": "MOLT-4 leukemia", "result": 8.44, "unit": "µM"}]}]}
